Results on eight compounds are retold here after PubChem BioAssay (NCI).

Some test systems named below: HOP-92 NSCLC; HS 578T breast; K-562 leukemia; MOLT-4 leukemia; NCI-H226 lung; SF-539 CNS; SK-MEL-28 melanoma; SN12C renal; SNB-75 CNS; UACC-257 melanoma.
Assay in all cases: inhibition of tumour cell growth, NCI panel, 48 h

Several values for one entry are separate records, joined by “and”; a condition that tells them apart may be missing. Identical values can stand only once.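 Grown in 96-well plates, cells were treated for 48 hours with each compound at five concentrations. Insufficient inhibition: endpoint recorded as highest concentration tested. GI50 marks 50% less growth. TGI marks complete inhibition of growth.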

Regarding `CCCN(Cc1ccc(F)cc1)c1ccc(CO)c(Cl)c1`, the GI50 is 2.66 µM in the assay with HOP-92 NSCLC; 14.8 µM with HS 578T breast; 2.22 µM in the assay on K-562 leukemia; 11.2 µM with MOLT-4 leukemia; 0.0365 µM with NCI-H226 lung; 15.3 µM in the assay on SF-539 CNS. Also, the GI50 is 13.7 µM in the assay on SK-MEL-28 melanoma, 9.42 µM with SN12C renal, 10.6 µM in the assay with SNB-75 CNS and 0.207 µM with UACC-257 melanoma. The TGI in the assay with HOP-92 NSCLC came to 14.2 µM; with HS 578T breast, 37.6 µM; in the assay with K-562 leukemia, 15.2 µM; in the assay on MOLT-4 leukemia, 30.1 µM; with NCI-H226 lung, 0.144 µM; in the assay on SF-539 CNS it was 29 µM. Also, the TGI in the assay with SK-MEL-28 melanoma is 27 µM; in the assay on SN12C renal it was 23.1 µM; in the assay with SNB-75 CNS, 22.7 µM; with UACC-257 melanoma, 0.776 µM.

`CC1Oc2cc3c(-c4c(O)cc(O)c5c(O)c6c(cc45)OC(C)C(C)C6=O)c(O)cc(O)c3c(O)c2C(=O)C1C` (configuration not stated): the TGI in the assay with HOP-92 NSCLC turned out to be 0.854 µM; in the assay with HS 578T breast, 0.459 µM; in the assay with K-562 leukemia, 0.627 µM; in the assay on MOLT-4 leukemia, 0.731 µM; in the assay with NCI-H226 lung, 0.89 µM; in the assay with SF-539 CNS it was 0.645 µM. For the same compound, the TGI in the assay with SK-MEL-28 melanoma was 1.96 µM; in the assay on SN12C renal it was 1.12 µM; in the assay on SNB-75 CNS, 0.557 µM; in the assay on UACC-257 melanoma, 1.68 µM.

`CCN(CC)CCOc1ccc(C(=C(C)c2ccc(Cl)cc2)c2ccc(OCCN(CC)CC)cc2)cc1`: the GI50 with HOP-92 NSCLC is 0.536 µM; in the assay with HS 578T breast it was 0.71 µM; in the assay with K-562 leukemia it was 0.627 µM; in the assay on MOLT-4 leukemia, 0.674 µM; with NCI-H226 lung, 2.54 µM; with SF-539 CNS it was 0.59 µM. Further, the GI50 is 0.602 µM in the assay with SK-MEL-28 melanoma, 1.19 µM in the assay with SN12C renal, 0.0499 µM in the assay on SNB-75 CNS and 0.592 µM in the assay with UACC-257 melanoma. Also, the TGI was 2.19 µM in the assay on HOP-92 NSCLC; 1.85 µM with HS 578T breast; 1.74 µM in the assay with K-562 leukemia; 1.5 µM with MOLT-4 leukemia; 7.32 µM in the assay on NCI-H226 lung; 1.1 µM in the assay on SF-539 CNS. In addition, the TGI amounted to 1.1 µM in the assay with SK-MEL-28 melanoma, 2.88 µM in the assay on SN12C renal, 1.66 µM in the assay on SNB-75 CNS and 1.17 µM in the assay with UACC-257 melanoma.

For the compound `CCc1ccc(NC(=O)Nc2c[nH]c3ccccc23)cc1`, the GI50 in the assay with HOP-92 NSCLC was 12 µM; in the assay on HS 578T breast, 10.4 µM; in the assay on K-562 leukemia it was 6.89 µM; in the assay on MOLT-4 leukemia, 1.85 µM; with NCI-H226 lung it was 7.29 µM; in the assay with SF-539 CNS it was 3.09 µM. The GI50 in the assay with SK-MEL-28 melanoma is over 39 µM; in the assay with SN12C renal, 2.22 µM; with SNB-75 CNS, 1.01 µM; in the assay on UACC-257 melanoma it was over 38.6 µM. Also, the TGI in the assay with HOP-92 NSCLC is over 53.1 µM; in the assay with HS 578T breast, over 67.8 µM; in the assay on K-562 leukemia, over 100 µM; in the assay with MOLT-4 leukemia, over 100 µM; in the assay with NCI-H226 lung, over 52.4 µM; in the assay with SF-539 CNS it was over 40.6 µM. Also, the TGI was over 56.6 µM in the assay with SK-MEL-28 melanoma, over 36.2 µM with SN12C renal, over 26.5 µM in the assay on SNB-75 CNS and over 59.9 µM with UACC-257 melanoma.

Consider `CCOC(=O)c1c2c(n(CC(C)C)c1C)-c1nc[nH]c1C(=O)C2=O`, for which the GI50 in the assay with HOP-92 NSCLC was 3.82 µM; with HS 578T breast, 38.9 µM; with K-562 leukemia, 6.74 µM; in the assay on MOLT-4 leukemia it was 2.57 µM; with NCI-H226 lung, 15 µM; in the assay on SF-539 CNS it was 14 µM. The GI50 was 19.3 µM with SK-MEL-28 melanoma, 13.4 µM with SN12C renal and 18.4 µM with UACC-257 melanoma. Moreover, the TGI in the assay with HOP-92 NSCLC is 16.2 µM; in the assay with HS 578T breast it was over 100 µM; with K-562 leukemia, 20.1 µM; in the assay with MOLT-4 leukemia it was 9.45 µM; with NCI-H226 lung it was 28.5 µM; with SF-539 CNS, 26.9 µM. Also, the TGI in the assay with SK-MEL-28 melanoma came out at 33.4 µM; in the assay on SN12C renal, 26.2 µM; with UACC-257 melanoma, 32.3 µM.

With `COc1cc(Cn2cc3c(c2)-c2oncc2CC3)cc(OC)c1OC`, the GI50 in the assay with HOP-92 NSCLC was 31 µM; in the assay on HS 578T breast, 0.0306 µM; with K-562 leukemia it was under 0.0183 µM; in the assay on MOLT-4 leukemia it was 0.0338 µM; in the assay on NCI-H226 lung, 0.256 µM; in the assay with SF-539 CNS, 0.0237 µM. For the same compound, the GI50 in the assay on SN12C renal was 0.0435 µM; in the assay with UACC-257 melanoma it was 1.16 µM. Besides, the TGI in the assay on HOP-92 NSCLC was over 100 µM; in the assay on HS 578T breast it was over 51.3 µM; with K-562 leukemia, over 34.7 µM; in the assay with MOLT-4 leukemia, 13.1 µM; in the assay with NCI-H226 lung, over 100 µM; in the assay on SF-539 CNS, 0.0657 µM. The compound further displayed a TGI in the assay with UACC-257 melanoma of 51.7 µM.

`C=C(C)[C@@H]1CC=C(CO)CC1`: the GI50 in the assay on HOP-92 NSCLC, in the assay on K-562 leukemia, in the assay with MOLT-4 leukemia, in the assay on NCI-H226 lung, with SF-539 CNS and in the assay with SK-MEL-28 melanoma was over 10 µM in each case. Besides, the GI50 in the assay with SN12C renal, with SNB-75 CNS and in the assay with UACC-257 melanoma was over 10 µM throughout. The TGI in the assay on HOP-92 NSCLC is > 10 µM and 830 µM; in the assay on HS 578T breast, over 10 µM; in the assay on K-562 leukemia, > 10 µM and 1140 µM; in the assay on MOLT-4 leukemia, > 10 µM and 1050 µM; with NCI-H226 lung, > 10 µM and 1090 µM; in the assay with SF-539 CNS it was > 10 µM and 1120 µM. Also, the TGI in the assay with SK-MEL-28 melanoma is > 10 µM and 829 µM; in the assay with SN12C renal, > 10 µM and 1220 µM; with SNB-75 CNS, > 10 µM and 374 µM; in the assay on UACC-257 melanoma, > 10 µM and 1150 µM.

Regarding `OCC1OC(n2ccc3c2ncn2ncnc32)C(O)C1O` (configuration not stated), the GI50 with HOP-92 NSCLC was 0.253 µM; in the assay on HS 578T breast it was 6.46 µM; in the assay on K-562 leukemia, 2.07 µM; in the assay with MOLT-4 leukemia, 0.407 µM; in the assay with NCI-H226 lung, 1.59 µM; in the assay on SF-539 CNS, 2.13 µM. The GI50 in the assay with SK-MEL-28 melanoma was over 72.9 µM; in the assay with SN12C renal it was 0.6 µM; in the assay with SNB-75 CNS, 4.2 µM; in the assay on UACC-257 melanoma, over 70.4 µM. For the same compound, the TGI in the assay on HOP-92 NSCLC is 9.22 µM; with HS 578T breast, 85.9 µM; in the assay with K-562 leukemia, over 100 µM; in the assay with MOLT-4 leukemia, over 43.1 µM; in the assay on NCI-H226 lung, over 100 µM; in the assay on SF-539 CNS it was 57.3 µM. The TGI in the assay with SK-MEL-28 melanoma is over 100 µM; with SN12C renal it was over 100 µM; in the assay with SNB-75 CNS, 68.7 µM; with UACC-257 melanoma it was over 100 µM.
